Reference: patent US20230190924A1, “ANTIGEN OF ALLERGY AND EPITOPE THEREOF” (HOYU CO., LTD., priority 2017, published 2023)

The substances below were run on IgE antibodies from patients (assay: Epitope mapping (2) overlapping (10-amino-acid peptides) and (3) alanine scanning on peptide arrays). Settings: overlapping peptides with flanking sequence.
Type: binding, human
Procedure: On the basis of the sequences (SEQ ID NOs: 272-295 for vitellogenin-2 precursor, SEQ ID NOs: 296-303 for vitellogenin-3, SEQ ID NOs: 304-311 for apolipoprotein B precursor, and SEQ ID NOs: 312-318 for vitellogenin-1 or lipovitellin-1) of the peptides bound to an IgE antibody in serum in a patient-specific manner as described above in (A), a library of overlapping peptide fragments (length: 10 amino acids) was prepared using the sequences of the peptides and sequences in which sequences were added so as to flank each peptide in the amino acid sequences of allergen components (amino acid sequences of SEQ ID NO: 59, 106 or 262 for vitellogenin-2 precursor, SEQ ID NO: 2, 13 or 47 for vitellogenin-3, SEQ ID NO: 152, 237 or 251 for apolipoprotein B, and SEQ ID NO: 18 for vitellogenin-1 or lipovitellin-1) comprising the sequences of the peptide to carry out epitope mapping.
The peptides to be synthesized were shifted by one amino acid.
The library was prepared by the same procedure as described above in (A), and the presence or absence of binding of an IgE antibody present in the serum of a patient and a non-egg-allergic subject to each peptide fragment was measured by the same technique as described above. Amino acids at positions where the binding activity against IgE antibodies from patients were lost or decreased in the peptides shifted by one amino acid while binding activity against IgE antibodies from non-egg-allergic subjects arose were confirmed as amino acids adversely affecting the specificity of binding to IgE antibodies.
Chemiluminescence intensity in images obtained by measurement was converted into a numeric value in the same manner as in (A) using ImageQuant TL (GE Healthcare). Numeric values determined from images obtained as a result of using only anti-human IgE antibody-HRP antibody without carrying out the procedures (2) and (3) described above in the subsection titled (3) Spotting of cellulose-bound peptide solution were […] numeric values determined from images obtained from results about the serum of 6 patients. It was determined that a peptide having the resulting value larger than 0 had no binding activity against IgE antibodies when having less than 20% of values obtained using the sequences (amino acid sequences of SEQ ID NO: 59, 106 or 262 for vitellogenin-2, SEQ ID NO: 2, 13 or 47 for vitellogenin-3, SEQ ID NO: 152, 237 or 251 for apolipoprotein B, and SEQ ID NO: 18 for vitellogenin-1 or lipovitellin-1) serving as the basis of overlapping, had binding activity, albeit poor, against IgE antibodies when having 20% or more and less than 50% thereof, had binding activity, albeit somewhat poor, against IgE antibodies when having 50% or more and less than 70% thereof, had almost equivalent binding activity against IgE antibodies when having 70% or more and less than 90% thereof, and had equivalent or good binding activity against IgE antibodies and thus had remaining binding activity against IgE antibodies when having 90% or more thereof.
From the amino acid sequences identified above in (A), a library of peptide fragments in which N-terminal amino acids were substituted one by one by alanine according to a technique called alanine scanning (Non Patent Literature 1) was prepared by the same technique as described above. The presence or absence of binding of an IgE antibody present in the serum of a patient and a non-egg-allergic subject to each peptide fragment was measured by the same technique as described above. Amino acids at positions where the binding activity against IgE antibodies from patients were lost or decreased by the substitution by alanine while binding activity against IgE antibodies from non-egg-allergic subjects arose were confirmed as amino acids important for exertion of original antigenicity, or amino acids influencing exertion of original antigenicity.

| binding to IgE antibodies from patients, sequence comprising a region carboxy-terminally adjacent to the epitope | binding to IgE antibodies from patients, sequence comprising a region amino-terminally adjacent to the epitope | Substance |
| --- | --- | --- |
| binding to IgE antibodies from patients |  | SEQ ID NO: 487: sequence comprising a region carboxy-terminally adjacent to epitope 20 (NIKIGSHEI; epitope) |
|  | binding to IgE antibodies from patients | SEQ ID NO: 492: sequence comprising a region amino-terminally adjacent to epitope 21 (LAAPGHG; epitope) |
|  | binding to IgE antibodies from patients | SEQ ID NO: 497: sequence comprising a region amino-terminally adjacent to epitope 21 (GFALAAPGHG; epitope) |
|  | binding to IgE antibodies from patients | SEQ ID NO: 503: sequence comprising a region amino-terminally adjacent to epitope 21 (GFALAAPGHG; epitope) |
|  | binding to IgE antibodies from patients | SEQ ID NO: 517: sequence comprising a region amino-terminally adjacent to epitope 23 (APCRGACKLH; epitope) |
| binding to IgE antibodies from patients |  | SEQ ID NO: 523: sequence comprising a region carboxy-terminally adjacent to epitope 23 (FVKLEKTVQL; epitope) |
|  | binding to IgE antibodies from patients | SEQ ID NO: 553: sequence comprising a region amino-terminally adjacent to epitope 33 (IVTLAEKYDL; epitope) |

The next lines start with the substance.

| Substance | binding to IgE antibodies from patients, sequence comprising a region carboxy-terminally adjacent to the epitope | binding to IgE antibodies from patients, sequence comprising a region amino-terminally adjacent to the epitope |
| --- | --- | --- |
| SEQ ID NO: 495: sequence comprising a region carboxy-terminally adjacent to epitope 21 (YFDGKTITIQ; epitope) | binding to IgE antibodies from patients |  |
| SEQ ID NO: 498: sequence comprising a region amino-terminally adjacent to epitope 21 (ALAAPGHGID; epitope) |  | binding to IgE antibodies from patients |
| SEQ ID NO: 515: sequence comprising a region carboxy-terminally adjacent to epitope 22 (GYLAKNAVSF; epitope) | binding to IgE antibodies from patients |  |
| SEQ ID NO: 516: sequence comprising a region amino-terminally adjacent to epitope 23 (PCRGACKLH; epitope) |  | binding to IgE antibodies from patients |
| SEQ ID NO: 535: sequence comprising a region carboxy-terminally adjacent to epitope 27 (YDAEKKREY; epitope) | binding to IgE antibodies from patients |  |
| SEQ ID NO: 542: sequence comprising a region carboxy-terminally adjacent to epitope 27 (YDAEKKRE; epitope) | binding to IgE antibodies from patients |  |
| SEQ ID NO: 550: sequence comprising a region amino-terminally adjacent to epitope 30 (EDTCTGACK; epitope) |  | binding to IgE antibodies from patients |
| SEQ ID NO: 551: sequence comprising a region carboxy-terminally adjacent to epitope 30 (QRKFVKIE; epitope) | binding to IgE antibodies from patients |  |
| SEQ ID NO: 556: sequence comprising a region carboxy-terminally adjacent to epitope 33 (NWAENLNQFI; epitope) | binding to IgE antibodies from patients |  |
| SEQ ID NO: 557: sequence comprising a region carboxy-terminally adjacent to epitope 33 (AENLNQFIET; epitope) | binding to IgE antibodies from patients |  |
| SEQ ID NO: 565: sequence comprising a region amino-terminally adjacent to epitope 34 (QDGTKVKLY; epitope) |  | binding to IgE antibodies from patients |

Same assay, conditions: procedures (B) overlapping and (C) alanine scanning

| region within the epitope important for binding to IgE antibodies from patients | Substance |
| --- | --- |
| important for binding | SEQ ID NO: 505: region in epitope 21 (AAPGHGID; epitope) |
| important for binding | SEQ ID NO: 507: region in epitope 21 (PGHGIDKLYF; epitope) |
| important for binding | SEQ ID NO: 509: region in epitope 21 (DKLYFDGKT; epitope) |
| important for binding | SEQ ID NO: 512: region in epitope 22 (MPNGYLAKNA; epitope) |
| important for binding | SEQ ID NO: 531: region in epitope 26 (GLLIS; epitope) |
| important for binding | SEQ ID NO: 534: region in epitope 27 (GICGKYDAE; epitope) |
| important for binding | SEQ ID NO: 541: region in epitope 27 (ICGKYDAEKK; epitope) |
| important for binding | SEQ ID NO: 555: region in epitope 33 (AEKYDLKN; epitope) |
| important for binding | SEQ ID NO: 562: region in epitope 34 (DEPLNV; epitope) |

The remaining lines, values behind:

| Substance | region within the epitope important for binding to IgE antibodies from patients |
| --- | --- |
| SEQ ID NO: 486: region in epitope 20 (KAINIKIGS; epitope) | important for binding |
| SEQ ID NO: 491: region in epitope 21 (AAPGHG; epitope) | important for binding |
| SEQ ID NO: 494: region in epitope 21 (DKLYFD; epitope) | important for binding |
| SEQ ID NO: 500: region in epitope 21 (DKLYFDG; epitope) | important for binding |
| SEQ ID NO: 520: region in epitope 23 (ACKLHRSFVK; epitope) | important for binding |
| SEQ ID NO: 522: region in epitope 23 (RSFVKLE; epitope) | important for binding |
| SEQ ID NO: 528: region in epitope 26 (GLLIS; epitope) | important for binding |
| SEQ ID NO: 533: region in epitope 27 (ICGKYDAE; epitope) | important for binding |
| SEQ ID NO: 539: region in epitope 27 (CGICGKYDA; epitope) | important for binding |
| SEQ ID NO: 544: region in epitope 27 (YDAEKK; epitope) | important for binding |
| SEQ ID NO: 561: region in epitope 34 (DEPLN; epitope) | important for binding |
